In ChEMBL document CHEMBL5149980, “The Alpha Keto Amide Moiety as a Privileged Motif in Medicinal Chemistry: Current Insights and Emerging Opportunities” (J Med Chem, 2021):
Converted amounts (≈) assume the structure as drawn.

Assays:
[1] = biological target: T1, Phospholipase A2, membrane associated (Homo sapiens, UniProt P14555); assay: Inhibition of human group IIA phospholipase A2 incubated for 30 mins by automatic plate reader analysis
T1 sequence (P14555 whole entry): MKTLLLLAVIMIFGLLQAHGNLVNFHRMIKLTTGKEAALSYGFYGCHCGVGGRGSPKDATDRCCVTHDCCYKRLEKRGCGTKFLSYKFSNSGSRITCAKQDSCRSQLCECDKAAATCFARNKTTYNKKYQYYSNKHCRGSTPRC

[2] = biological target: T1, Phospholipase A2, membrane associated; assay: Inhibition of human group IIA phospholipase A2 preincubated with compound for 10 mins followed by enzyme addition and measured after 30 mins by PC/DOC assay
[3] = biological target: Translocator protein (Rattus norvegicus) (UniProt P16257); assay: Activation of TSPO in rat C6 glioma cells assessed as increase in pregnenolone incubated for 2 hrs by radioimmuno assay; format: cell-based; set-up: concentration or dose not given beside the values; conditions: filed as activator
SARS-CoV-2 = assay: Antiviral activity against SARS-CoV-2 infected in human Calu-3 cells; format: functional, organism-based; conditions: Severe acute respiratory syndrome coronavirus 2, Calu-3
Translocator protein [4] = biological target: Translocator protein (Rattus norvegicus, UniProt P16257); assay: Displacement of [3H]-PK11195 from rat kidney mitochondrial membrane TSPO receptor assessed as inhibition constant; format: cell membranes
Translocator protein [5] = biological target: T2, Translocator protein (Homo sapiens, UniProt P30536); assay: Displacement of [3H] PK11195 from TSPO in human U-87 MGcell membrane assessed as inhibition constant; format: cell membranes, U-87 MG
[6] = biological target: Replicase polyprotein 1ab (Severe acute respiratory syndrome coronavirus 2, UniProt P0DTD1); assay: Inhibition of SARS-Cov-2 Main protease
[7] = biological target: GABA-A receptor; alpha-1/beta-2/gamma-2 (Homo sapiens) (UniProt P14867+P47870+P18507); assay: Inhibition of alpha1beta2gamma2 GABAA receptor (unknown origin) relative to control; format: protein-complex assay
[8] = biological target: GABA A receptor alpha-2/beta-2/gamma-2 (Homo sapiens) (UniProt P47870+P18507+P47869); assay: Inhibition of alpha2beta2gamma2 GABAA receptor (unknown origin) relative to control; format: protein-complex assay
[9] = biological target: GABA-A receptor; alpha-5/beta-3/gamma-2 (Homo sapiens) (UniProt P18507+P28472+P31644); assay: Inhibition of alpha5beta3gamma2 GABAA receptor (unknown origin) relative to control; format: protein-complex assay
[10] = biological target: Calpain-1 catalytic subunit (Homo sapiens, UniProt P07384); assay: Inhibition of human Calpain I assessed as dissociation constant using Suc-Leu-Tyr-AMC as substrate preincubated for 15 mins followed by compound addition and measured after 40 mins by […]
Cathepsin B = Cathepsin B (Homo sapiens, UniProt P07858); assay: Inhibition of human Cathepsin B assessed as inhibition constant
Cathepsin K = Cathepsin K (Homo sapiens, UniProt P43235); assay: Inhibition of human Cathepsin K assessed as inhibition constant
Procathepsin L = Procathepsin L (Homo sapiens, UniProt P07711); assay: Inhibition of human Cathepsin L assessed as inhibition constant
Cathepsin S = Cathepsin S (Homo sapiens, UniProt P25774); assay: Inhibition of human Cathepsin S assessed as inhibition constant
[11] = biological target: Dipeptidyl peptidase 1 (Homo sapiens) (UniProt P53634); assay: Inhibition of human Cathepsin C assessed as inhibition constant at 10 uM relative to control
Homo sapiens = species: Homo sapiens; assay: Inhibition of human Cathepsin H assessed as inhibition constant at 10 uM relative to control
Staphylococcus aureus [12] = assay: Antibacterial activity against Staphylococcus aureus SA38 infected in MRC5 assessed as bacterial growth inhibition by alamar blue assay; format: functional
Translocator protein [13] = biological target: T2, Translocator protein; assay: Displacement of [3H] PK11195 from TSPO (unknown origin) assessed as inhibition constant
[14] = Inhibition of SARS-CoV Main protease; set-up: species or system Severe acute respiratory syndrome-related coronavirus
[15] = Inhibition of MERS-CoV Main protease; set-up: species or system Middle East respiratory syndrome-related coronavirus
Staphylococcus aureus [16] = assay: Antibacterial activity against Staphylococcus aureus assessed as bacterial growth inhibition incubated for 24 hrs by microplate reader analysis; format: functional
[17] = biological target: Group IIE secretory phospholipase A2 (Homo sapiens, UniProt Q9NZK7); assay: Inhibition of human group IIE phospholipase A2 expressed in Escherichia coli BL21 cells incubated for 10 to 20 mins cells by radiometric assay
Phospholipase A2 group V [18] = biological target: Phospholipase A2 group V (Homo sapiens, UniProt P39877); assay: Inhibition of human group V phospholipase A2 expressed in Escherichia coli BL21(DE3) cells incubated for 10 to 20 mins cells by radiometric assay
Phospholipase A2 [19] = biological target: Phospholipase A2 (Homo sapiens, UniProt P04054); assay: Inhibition of human group IB phospholipase A2 expressed in Escherichia coli BL21 cells incubated for 10 to 20 mins cells by radiometric assay
[20] = biological target: Phospholipase A2, membrane associated (Mus musculus, UniProt P31482); assay: Inhibition of mouse group IIA phospholipase A2 incubated for 10 to 20 mins cells by radiometric assay
[21] = biological target: T1, Phospholipase A2, membrane associated; assay: Inhibition of human group IIA phospholipase A2 incubated for 10 to 20 mins cells by radiometric assay
[22] = biological target: Group IIC secretory phospholipase A2 (Mus musculus, UniProt P48076); assay: Inhibition of mouse group IIC phospholipase A2 incubated for 10 to 20 mins cells by radiometric assay
[23] = biological target: Group IIE secretory phospholipase A2 (Mus musculus, UniProt Q9QUL3); assay: Inhibition of mouse group IIE phospholipase A2 incubated for 10 to 20 mins cells by radiometric assay
Phospholipase A2 group V [24] = biological target: Phospholipase A2 group V (Mus musculus, UniProt P97391); assay: Inhibition of mouse group V phospholipase A2 incubated for 10 to 20 mins cells by radiometric assay
Phospholipase A2 [25] = biological target: Phospholipase A2 (Mus musculus, UniProt Q9Z0Y2); assay: Inhibition of mouse group IB phospholipase A2 incubated for 10 to 20 mins cells by radiometric assay
[26] = biological target: Group 10 secretory phospholipase A2 (Mus musculus, UniProt Q9QXX3); assay: Inhibition of mouse group X phospholipase A2 incubated for 10 to 20 mins cells by radiometric assay
[27] = biological target: Group 10 secretory phospholipase A2 (Homo sapiens, UniProt O15496); assay: Inhibition of human group X phospholipase A2 incubated for 10 to 20 mins cells by radiometric assay
Bacillus cereus = assay: Antibacterial activity against Bacillus cereus assessed as bacterial growth inhibition by microdilution analysis; format: functional
Staphylococcus aureus [28] = assay: Antibacterial activity against Staphylococcus aureus assessed as bacterial growth inhibition by microdilution analysis; format: functional
Escherichia coli [29] = assay: Antibacterial activity against Escherichia coli assessed as bacterial growth inhibition by microdilution analysis; format: functional
Pseudomonas putida = assay: Antibacterial activity against Pseudomonas putida assessed as bacterial growth inhibition by microdilution analysis; format: functional
Pseudomonas aeruginosa = assay: Inhibition of quorum sensing system in Pseudomonas aeruginosa MH602 assessed as GFP level incubated for 15 hrs at 250 uM by microplate titre analysis relative to control; format: functional
Escherichia coli [30] = assay: Inhibition of quorum sensing system in Escherichia coli MT102 assessed as GFP level incubated for 22 hrs at 250 uM by microplate titre analysis relative to control; format: functional

Translocator protein (Rattus norvegicus), sequence (P16257 whole entry, looked up): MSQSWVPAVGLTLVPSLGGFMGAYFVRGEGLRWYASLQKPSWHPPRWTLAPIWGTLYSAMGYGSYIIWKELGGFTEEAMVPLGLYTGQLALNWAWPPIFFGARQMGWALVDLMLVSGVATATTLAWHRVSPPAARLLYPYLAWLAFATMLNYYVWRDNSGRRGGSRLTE
T2 sequence (P30536 whole entry): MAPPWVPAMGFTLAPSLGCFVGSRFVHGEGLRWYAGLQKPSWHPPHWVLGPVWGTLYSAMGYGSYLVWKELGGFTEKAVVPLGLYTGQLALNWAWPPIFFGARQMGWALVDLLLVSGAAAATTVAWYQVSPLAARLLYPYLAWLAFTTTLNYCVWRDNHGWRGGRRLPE
Translocator protein (Rattus norvegicus, UniProt P16257), sequence (P16257 whole entry, looked up): as the sequence (P16257 whole entry, looked up) above
Phospholipase A2 group V (Mus musculus, UniProt P97391), sequence (P97391 whole entry): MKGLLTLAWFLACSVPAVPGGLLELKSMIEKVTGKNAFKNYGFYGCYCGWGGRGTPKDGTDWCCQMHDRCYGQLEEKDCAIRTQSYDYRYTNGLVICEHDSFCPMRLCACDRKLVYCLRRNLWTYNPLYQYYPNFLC
Phospholipase A2 (Homo sapiens, UniProt P04054), sequence (P04054 whole entry): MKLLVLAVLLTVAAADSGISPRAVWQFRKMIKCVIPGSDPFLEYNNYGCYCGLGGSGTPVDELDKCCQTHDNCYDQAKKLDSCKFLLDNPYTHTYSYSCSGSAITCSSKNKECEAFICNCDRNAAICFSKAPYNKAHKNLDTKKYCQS
Calpain-1 catalytic subunit, sequence (P07384 whole entry): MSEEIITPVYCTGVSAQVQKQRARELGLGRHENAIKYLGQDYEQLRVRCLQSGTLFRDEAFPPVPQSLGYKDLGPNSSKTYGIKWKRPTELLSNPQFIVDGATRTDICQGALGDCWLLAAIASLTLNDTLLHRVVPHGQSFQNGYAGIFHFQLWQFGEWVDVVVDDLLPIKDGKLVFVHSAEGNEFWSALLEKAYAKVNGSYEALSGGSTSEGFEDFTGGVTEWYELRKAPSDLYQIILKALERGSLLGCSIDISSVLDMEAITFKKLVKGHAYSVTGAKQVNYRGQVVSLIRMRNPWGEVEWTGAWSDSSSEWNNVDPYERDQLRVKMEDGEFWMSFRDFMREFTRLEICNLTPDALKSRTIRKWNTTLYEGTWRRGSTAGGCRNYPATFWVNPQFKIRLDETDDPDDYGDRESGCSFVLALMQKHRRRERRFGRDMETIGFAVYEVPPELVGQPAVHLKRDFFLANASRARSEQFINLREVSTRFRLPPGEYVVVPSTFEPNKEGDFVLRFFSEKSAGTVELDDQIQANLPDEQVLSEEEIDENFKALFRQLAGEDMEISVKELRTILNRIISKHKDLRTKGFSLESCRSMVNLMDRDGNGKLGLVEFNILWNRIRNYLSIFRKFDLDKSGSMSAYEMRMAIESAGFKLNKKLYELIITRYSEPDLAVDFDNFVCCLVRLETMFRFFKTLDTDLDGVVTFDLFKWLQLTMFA
Procathepsin L, sequence (P07711 whole entry): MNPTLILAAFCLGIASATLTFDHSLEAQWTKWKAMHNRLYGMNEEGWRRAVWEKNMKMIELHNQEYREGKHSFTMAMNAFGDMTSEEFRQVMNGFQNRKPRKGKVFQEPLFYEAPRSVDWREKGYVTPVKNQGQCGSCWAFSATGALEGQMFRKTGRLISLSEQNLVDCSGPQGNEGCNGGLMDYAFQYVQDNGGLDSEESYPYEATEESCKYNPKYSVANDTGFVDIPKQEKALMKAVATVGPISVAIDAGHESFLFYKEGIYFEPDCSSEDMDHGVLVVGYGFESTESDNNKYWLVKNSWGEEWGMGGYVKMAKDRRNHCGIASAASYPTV
Phospholipase A2, membrane associated (Mus musculus, UniProt P31482), sequence (P31482 whole entry): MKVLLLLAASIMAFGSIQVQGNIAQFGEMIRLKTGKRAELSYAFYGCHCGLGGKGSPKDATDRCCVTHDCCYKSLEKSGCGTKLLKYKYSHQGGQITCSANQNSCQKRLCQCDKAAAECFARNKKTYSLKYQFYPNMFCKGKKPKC
Phospholipase A2 (Mus musculus, UniProt Q9Z0Y2), sequence (Q9Z0Y2 whole entry): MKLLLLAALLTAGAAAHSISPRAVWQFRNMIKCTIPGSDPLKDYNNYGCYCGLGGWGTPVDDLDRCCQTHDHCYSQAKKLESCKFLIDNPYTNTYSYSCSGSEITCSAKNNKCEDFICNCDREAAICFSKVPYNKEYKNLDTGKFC
Group IIC secretory phospholipase A2, sequence (P48076 whole entry): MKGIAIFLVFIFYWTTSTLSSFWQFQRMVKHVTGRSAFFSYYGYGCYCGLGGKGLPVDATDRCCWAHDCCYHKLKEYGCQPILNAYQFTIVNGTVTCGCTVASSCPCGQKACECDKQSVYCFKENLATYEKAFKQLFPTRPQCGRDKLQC
Cathepsin K, sequence (P43235 whole entry): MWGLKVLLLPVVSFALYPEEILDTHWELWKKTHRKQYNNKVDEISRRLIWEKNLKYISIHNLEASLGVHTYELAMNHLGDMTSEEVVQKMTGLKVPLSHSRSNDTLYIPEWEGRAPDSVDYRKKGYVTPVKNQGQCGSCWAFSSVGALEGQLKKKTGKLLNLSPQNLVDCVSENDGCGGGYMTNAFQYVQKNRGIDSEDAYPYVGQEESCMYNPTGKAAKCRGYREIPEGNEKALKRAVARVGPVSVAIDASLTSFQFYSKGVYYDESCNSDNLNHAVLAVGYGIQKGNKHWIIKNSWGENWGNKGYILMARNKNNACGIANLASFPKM
Group IIE secretory phospholipase A2 (Mus musculus, UniProt Q9QUL3), sequence (Q9QUL3 whole entry): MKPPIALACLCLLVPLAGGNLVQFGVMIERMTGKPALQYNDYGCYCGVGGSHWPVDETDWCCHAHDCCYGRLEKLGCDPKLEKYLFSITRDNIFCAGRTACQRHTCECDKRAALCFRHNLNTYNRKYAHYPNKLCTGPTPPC
Dipeptidyl peptidase 1 (Homo sapiens), sequence (P53634 25-134 limits assumed): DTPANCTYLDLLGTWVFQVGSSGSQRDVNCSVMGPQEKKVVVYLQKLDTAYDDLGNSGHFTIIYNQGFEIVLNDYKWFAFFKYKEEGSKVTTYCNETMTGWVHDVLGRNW
Dipeptidyl peptidase 1 (Homo sapiens), sequence (P53634 231-394 limits assumed): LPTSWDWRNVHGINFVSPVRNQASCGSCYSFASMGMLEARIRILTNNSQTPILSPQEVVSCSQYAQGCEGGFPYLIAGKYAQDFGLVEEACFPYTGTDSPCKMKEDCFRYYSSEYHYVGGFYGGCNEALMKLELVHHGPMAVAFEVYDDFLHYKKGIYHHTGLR
Dipeptidyl peptidase 1 (Homo sapiens), sequence (P53634 395-463 limits assumed): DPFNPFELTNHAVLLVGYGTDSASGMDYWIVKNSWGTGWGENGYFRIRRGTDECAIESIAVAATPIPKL
Group IIE secretory phospholipase A2 (Homo sapiens, UniProt Q9NZK7), sequence (Q9NZK7 whole entry): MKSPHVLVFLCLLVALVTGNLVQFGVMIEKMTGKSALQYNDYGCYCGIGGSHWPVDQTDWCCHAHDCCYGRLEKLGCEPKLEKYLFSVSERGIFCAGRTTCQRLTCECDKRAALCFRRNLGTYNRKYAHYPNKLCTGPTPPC
Cathepsin S, sequence (P25774 whole entry): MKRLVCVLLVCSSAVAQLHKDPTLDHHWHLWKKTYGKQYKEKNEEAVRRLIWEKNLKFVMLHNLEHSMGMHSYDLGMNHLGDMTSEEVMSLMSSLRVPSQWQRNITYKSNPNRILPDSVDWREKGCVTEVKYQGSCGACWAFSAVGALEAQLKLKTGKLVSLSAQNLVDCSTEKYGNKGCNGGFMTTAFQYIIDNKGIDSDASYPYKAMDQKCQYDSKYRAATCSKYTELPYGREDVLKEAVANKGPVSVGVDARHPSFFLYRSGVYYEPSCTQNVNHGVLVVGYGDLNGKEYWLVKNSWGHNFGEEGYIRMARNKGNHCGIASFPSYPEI
Group 10 secretory phospholipase A2 (Homo sapiens, UniProt O15496), sequence (O15496 whole entry): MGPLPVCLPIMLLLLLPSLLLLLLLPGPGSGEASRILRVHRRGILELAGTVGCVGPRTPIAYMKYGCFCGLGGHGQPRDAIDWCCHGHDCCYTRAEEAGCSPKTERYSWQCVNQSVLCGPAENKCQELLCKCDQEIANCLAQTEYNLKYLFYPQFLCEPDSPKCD
Group 10 secretory phospholipase A2 (Mus musculus, UniProt Q9QXX3), sequence (Q9QXX3 whole entry): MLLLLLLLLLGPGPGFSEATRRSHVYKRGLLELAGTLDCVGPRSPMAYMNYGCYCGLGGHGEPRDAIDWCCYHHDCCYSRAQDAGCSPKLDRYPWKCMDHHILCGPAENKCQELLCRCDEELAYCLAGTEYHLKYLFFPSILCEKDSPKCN
Phospholipase A2 group V (Homo sapiens, UniProt P39877), sequence (P39877 whole entry): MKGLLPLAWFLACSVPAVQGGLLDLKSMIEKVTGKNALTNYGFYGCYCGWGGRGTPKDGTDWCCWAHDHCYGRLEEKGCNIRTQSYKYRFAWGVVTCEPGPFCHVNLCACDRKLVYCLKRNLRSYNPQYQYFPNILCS

## CCc1c(CC(N)=O)c2c(OCC(=O)O)cccn2c1Cc1cccc2ccccc12
[1]
  IC50: 30 nM
[2]
  IC50: 5 nM

## CCc1c(C(=O)C(=O)NC)c2c(OCC(=O)O)cccn2c1Cc1ccccc1
[1]
  IC50: > 50000 nM

## CCC(C)N(C)C(=O)c1cc2ccccc2c(-c2ccccc2Cl)n1 (stereo not given)
[3]
  Activity: 48%

## Nc1cccn([C@@H](CC2CC2)C(=O)N[C@@H](C[C@@H]2CCNC2=O)C(=O)C(=O)NCc2ccccc2)c1=O
SARS-CoV-2
  EC50: 4000 nM

## CCCN(CCC)C(=O)C(=O)c1c(-c2ccccc2)[nH]c2ccc(C)cc12
Translocator protein [4]
  Ki: 5.5 nM
[3]
  Activity: 148%

## CCOC(=O)[C@@H](Cc1ccccc1)NC(=O)[C@H](CC(C)C)NC(=O)C(=O)c1c(-c2ccccc2)[nH]c2ccc(N=C=S)cc12
Translocator protein [5]
  Ki: 108 nM

## CC(C)(C)OC(=O)Nc1cccn([C@@H](CC2CCCCC2)C(=O)N[C@@H](C[C@@H]2CCNC2=O)C(=O)C(=O)NCc2ccccc2)c1=O
[6]
  IC50: 2390 nM

## O=C(NCc1ccccc1)C(=O)c1c[nH]c2ccc([N+](=O)[O-])cc12
[7]
  inhibition: 65%
[8]
  inhibition: 32%
[9]
  inhibition: 44%

## CCN(CC)c1ccc(/C=C/c2ccccc2C(=O)NC(Cc2ccccc2)C(=O)C(N)=O)cc1 (stereo not given)
[10]
  Ki: 56 nM
Cathepsin B
  Ki: 28 nM
Cathepsin K
  Ki: 1.8 nM
Procathepsin L
  Ki: 137 nM
Cathepsin S
  Ki: 3290 nM
[11]
  inhibition: 94%
Homo sapiens
  inhibition: 84%

## CCCCCCCCCS(=O)(=O)Nc1ccc(Br)cc1C(=O)C(=O)NCCCNC(=N)N
Staphylococcus aureus [12]
  MIC: 12 µM (≈ 6.39 µg/mL)

## Cc1c(C(=O)C(N)=O)c2c(OCn3cnnn3)cccn2c1Cc1ccccc1-c1ccccc1
[1]
  IC50: 7 nM
[2]
  IC50: 7 nM

## CCOC(=O)[C@@H](Cc1ccccc1)NC(=O)[C@H](CC(C)C)NC(=O)C(=O)c1c(-c2ccccc2)[nH]c2ccccc12
Translocator protein [13]
  Ki: 438 nM

## CCCCCCN(CCCCCC)C(=O)C(=O)c1c(-c2ccc(Cl)cc2)[nH]c2ccc(Cl)cc12
[3]
  Activity: 166%

## CC(C)(C)OC(=O)Nc1cccn([C@@H](CC2CC2)C(=O)N[C@@H](C[C@@H]2CCNC2=O)C(=O)C(=O)NCc2ccccc2)c1=O
[14]
  IC50: 900 nM
[15]
  IC50: 580 nM

## CCc1c(C(=O)C(N)=O)c2c(OCC(O)CC)cccn2c1Cc1cccc(Cl)c1 (stereo not given)
[1]
  IC50: 19000 nM

## C[N+](C)(C)CCCNC(=O)C(=O)c1cc(Br)ccc1NC(=O)c1ccc2ccccc2c1.[I-]
Staphylococcus aureus [16]
  MIC: 39 µg/mL

## CN1C(=O)CN=C(c2ccc(Cl)cc2)c2cc(Cl)ccc21
[3]
  Activity: 41%

## Cc1c(C(=O)C(N)=O)c2c(OCC(=O)O)cccn2c1Cc1ccccc1-c1ccccc1
[2]
  IC50: 1.4 nM
[17]
  IC50: 10 nM
Phospholipase A2 group V [18]
  IC50: 10 nM
Phospholipase A2 [19]
  IC50: 100 nM
[20]
  IC50: 10 nM
[21]
  IC50: 10 nM
[22]
  IC50: 10 nM
[23]
  IC50: 10 nM
Phospholipase A2 group V [24]
  IC50: 10 nM
Phospholipase A2 [25]
  IC50: 100 nM
[26]
  IC50: 100 nM
[27]
  IC50: 100 nM

## O=C(Nc1ccc(F)cc1)C(=O)c1ccc2c(c1)c1ccccc1n2Cc1ccc(Cl)cc1
Bacillus cereus
  MIC: 16 µg/mL
Staphylococcus aureus [28]
  MIC: > 8 µg/mL
Escherichia coli [29]
  MIC: 8 µg/mL
Pseudomonas putida
  MIC: 16 µg/mL

## C[N+](C)(C)CCCNC(=O)C(=O)c1cc(Br)ccc1NC(=O)c1ccc2ccccc2c1.[Cl-]
Staphylococcus aureus [16]
  MIC: 16 µg/mL

## CCCCN(CCCC)C(=O)C(=O)c1c(-c2ccc(Cl)cc2)[nH]c2ccc(Cl)cc12
[3]
  Activity: 147%

## CCOC(=O)CNC(=O)C(=O)c1ccccc1Nc1ccc([N+](=O)[O-])cc1[N+](=O)[O-]
Pseudomonas aeruginosa
  inhibition: 48.7%
Escherichia coli [30]
  inhibition: 73.6%

## CC(C)C[C@H](NC(=O)C(=O)c1c(-c2ccccc2)[nH]c2ccccc12)C(=O)N[C@H](Cc1ccccc1)C(=O)O
Translocator protein [13]
  Ki: 202 nM
